Experimental data published in patent US20250129430A1, “HIGH ATP-AFFINITY PROTEIN AS THERAPEUTIC TARGET FOR INTRACTABLE CANCER MOLECULAR SUBTYPES AND INHIBITOR THEREOF” (VeraVerse Co., Ltd., priority 2021, published 2025).

How the values were obtained:
Format in all cases: cell-based, human
AGS = assay: Cell viability drug screen, 12-point dose-response AUC; details: for Average Area Under the Viability Curve (AUC), AUC norm value: AGS cells (non-SEM subtype), 72 hours
Outline: (§1)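 Gastric cancer lines seeded 5×10^3 cells/well, dosed after 24 h with half-log 12-point compound dilutions (DMSO 0.5% control), then 72 h at 37 °C. Viability by luminescence, normalized to DMSO; AUC by trapezoidal method, averaged over repeats.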

Hs746T = assay: as above; details: for Average Area Under the Viability Curve (AUC), AUC norm value: Hs746T cells (SEM subtype), 72 hours
Outline: (§2)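 Twelve half-log concentrations per compound were tested on gastric cancer cells with an EMT phenotype (5×10^3/well, dosed 24 h post-seeding). Viability after 72 h was quantified via luminescence relative to 0.5% DMSO, and repeats were averaged.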

KATO3 = assay: as above; details: for Average Area Under the Viability Curve (AUC), AUC norm value: KATO3 cells, 72 hours
Outline: as §2

MKN1 = assay: as above; details: for Average Area Under the Viability Curve (AUC), AUC norm value: MKN1 cells, 72 hours
Outline: as §2

MKN28 = assay: as above; details: for Average Area Under the Viability Curve (AUC), AUC norm value: MKN28 cells, 72 hours
Outline: as §2

MKN45 = assay: as above; details: for Average Area Under the Viability Curve (AUC), AUC norm value: MKN45 cells (non-SEM subtype), 72 hours
Outline: as §1

MKN74 = assay: as above; details: for Average Area Under the Viability Curve (AUC), AUC norm value: MKN74 cells, 72 hours
Outline: as §1

NCC19 = assay: as above; details: for Average Area Under the Viability Curve (AUC), AUC norm value: NCC19 cells, 72 hours
Outline: as §2

NCC20 = assay: as above; details: for Average Area Under the Viability Curve (AUC), AUC norm value: NCC20 cells, 72 hours
Outline: as §2

NCC24 = assay: as above; details: for Average Area Under the Viability Curve (AUC), AUC norm value: NCC24 cells, 72 hours
Outline: as §2

NCC59 = assay: as above; details: for Average Area Under the Viability Curve (AUC), AUC norm value: NCC59 cells, 72 hours
Outline: as §2

NCI_N87 = assay: as above; details: for Average Area Under the Viability Curve (AUC), AUC norm value: NCI_N87 cells, 72 hours
Outline: as §2

OCUM1 = assay: as above; details: for Average Area Under the Viability Curve (AUC), AUC norm value: OCUM1 cells, 72 hours
Outline: as §2

SK4 = assay: as above; details: for Average Area Under the Viability Curve (AUC), AUC norm value: SK4 cells (SEM subtype), 72 hours
Outline: as §2

SNU16 = assay: as above; details: for Average Area Under the Viability Curve (AUC), AUC norm value: SNU16 cells, 72 hours
Outline: as §2

SNU1750 = assay: as above; details: for Average Area Under the Viability Curve (AUC), AUC norm value: SNU1750 cells (SEM subtype), 72 hours
Outline: as §2

SNU1967 = assay: as above; details: for Average Area Under the Viability Curve (AUC), AUC norm value: SNU1967 cells, 72 hours
Outline: as §2

SNU1 = assay: as above; details: for Average Area Under the Viability Curve (AUC), AUC norm value: SNU1 cells, 72 hours
Outline: as §2

SNU216 = assay: as above; details: for Average Area Under the Viability Curve (AUC), AUC norm value: SNU216 cells (non-SEM subtype), 72 hours
Outline: as §1

SNU484 = assay: as above; details: for Average Area Under the Viability Curve (AUC), AUC norm value: SNU484 cells (SEM subtype), 72 hours
Outline: as §2

SNU601 = assay: as above; details: for Average Area Under the Viability Curve (AUC), AUC norm value: SNU601 cells, 72 hours
Outline: as §2

SNU620 = assay: as above; details: for Average Area Under the Viability Curve (AUC), AUC norm value: SNU620 cells, 72 hours
Outline: as §2

SNU638 = assay: as above; details: for Average Area Under the Viability Curve (AUC), AUC norm value: SNU638 cells, 72 hours
Outline: as §2

SNU668 = assay: as above; details: for Average Area Under the Viability Curve (AUC), AUC norm value: SNU668 cells (SEM subtype), 72 hours
Outline: as §2

SNU719 = assay: as above; details: for Average Area Under the Viability Curve (AUC), AUC norm value: SNU719 cells, 72 hours
Outline: as §1

YCC11 = assay: as above; details: for Average Area Under the Viability Curve (AUC), AUC norm value: YCC11 cells (SEM subtype), 72 hours
Outline: as §2

YCC2 = assay: as above; details: for Average Area Under the Viability Curve (AUC), AUC norm value: YCC2 cells, 72 hours
Outline: as §2

YCC3 = assay: as above; details: for Average Area Under the Viability Curve (AUC), AUC norm value: YCC3 cells, 72 hours
Outline: as §2

FU97 = assay: as above; set-up: Average Area Under the Viability Curve (AUC), AUC norm value: scale not given here; details: for Average Area Under the Viability Curve (AUC), AUC norm value: FU97 cells, 72 hours
Outline: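 Trapezoidal AUC of a 12-point, DMSO-normalized dose-response curve. Luminescent viability was measured after 72 h of exposure at 37° C to half-log serial dilutions (0.5% DMSO control), dosed 24 h after plating FU97 cells at 5×10^3 per well.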

[1] = test system: non-SEM-type gastric cancer cell line; assay: Cell viability drug screen, AUC summary over non-SEM-type lines; details: in the non-SEM-type gastric cancer cell line

Cc1ccc([N+](=O)[O-])cc1S(=O)(=O)N(C)/N=C/c1cnc2ccc(Br)cn12 [PIK-75]
Average Area Under the Viability Curve (AUC), AUC norm value (AGS): −1.2576
Average Area Under the Viability Curve (AUC), AUC norm value (Hs746T): 0.1171
Average Area Under the Viability Curve (AUC), AUC norm value (KATO3): 3.793
Average Area Under the Viability Curve (AUC), AUC norm value (MKN1): −0.03458
Average Area Under the Viability Curve (AUC), AUC norm value (MKN28): 0.05865
Average Area Under the Viability Curve (AUC), AUC norm value (MKN45): 1.17
Average Area Under the Viability Curve (AUC), AUC norm value (MKN74): 0.2052
Average Area Under the Viability Curve (AUC), AUC norm value (NCC19): 0.3535
Average Area Under the Viability Curve (AUC), AUC norm value (NCC20): −0.4913
Average Area Under the Viability Curve (AUC), AUC norm value (NCC24): −0.07825
Average Area Under the Viability Curve (AUC), AUC norm value (NCC59): −0.1565
Average Area Under the Viability Curve (AUC), AUC norm value (NCI_N87): −0.1238
Average Area Under the Viability Curve (AUC), AUC norm value (OCUM1): 0.5105
Average Area Under the Viability Curve (AUC), AUC norm value (SK4): −1.009
Average Area Under the Viability Curve (AUC), AUC norm value (SNU16): −1.485
Average Area Under the Viability Curve (AUC), AUC norm value (SNU1750): 0
Average Area Under the Viability Curve (AUC), AUC norm value (SNU1967): −0.3048
Average Area Under the Viability Curve (AUC), AUC norm value (SNU1): −0.3397
Average Area Under the Viability Curve (AUC), AUC norm value (SNU216): 0.8132
Average Area Under the Viability Curve (AUC), AUC norm value (SNU484): −0.9469
Average Area Under the Viability Curve (AUC), AUC norm value (SNU601): 1.999
Average Area Under the Viability Curve (AUC), AUC norm value (SNU620): 0.7882
Average Area Under the Viability Curve (AUC), AUC norm value (SNU638): 1.312
Average Area Under the Viability Curve (AUC), AUC norm value (SNU668): −0.428
Average Area Under the Viability Curve (AUC), AUC norm value (SNU719): 5.726
Average Area Under the Viability Curve (AUC), AUC norm value (YCC11): −0.5398
Average Area Under the Viability Curve (AUC), AUC norm value (YCC2): 1.289
Average Area Under the Viability Curve (AUC), AUC norm value (YCC3): 1.723
Average Area Under the Viability Curve (AUC), AUC norm value (FU97): −0.5267
AUC value [1]: high

[O-][n+]1ccccc1[S-].[O-][n+]1ccccc1[S-].[Zn+2] [PYRITHIONE ZINC, Pyrithione zinc]
area under the viability curve (AUC), normalized (AGS): −0.9355
area under the viability curve (AUC), normalized (Hs746T): −0.541
area under the viability curve (AUC), normalized (KATO3): 0.8219
area under the viability curve (AUC), normalized (MKN1): −0.4913
area under the viability curve (AUC), normalized (MKN28): 0.1421
area under the viability curve (AUC), normalized (MKN45): −1.0871
area under the viability curve (AUC), normalized (MKN74): −1.149
area under the viability curve (AUC), normalized (NCC19): 0.7336
area under the viability curve (AUC), normalized (NCC20): −0.7838
area under the viability curve (AUC), normalized (NCC24): −0.309
area under the viability curve (AUC), normalized (NCC59): 0.7288
area under the viability curve (AUC), normalized (NCI_N87): 1.161
area under the viability curve (AUC), normalized (OCUM1): 0.5355
area under the viability curve (AUC), normalized (SK4): 0
area under the viability curve (AUC), normalized (SNU16): 1.28
area under the viability curve (AUC), normalized (SNU1750): 0.1011
area under the viability curve (AUC), normalized (SNU1967): −0.5027
area under the viability curve (AUC), normalized (SNU1): 1.431
area under the viability curve (AUC), normalized (SNU216): −0.2272
area under the viability curve (AUC), normalized (SNU484): −0.9287
area under the viability curve (AUC), normalized (SNU601): 2.666
area under the viability curve (AUC), normalized (SNU620): −0.7817
area under the viability curve (AUC), normalized (SNU638): −0.08685
area under the viability curve (AUC), normalized (SNU668): 0.7681
area under the viability curve (AUC), normalized (SNU719): 1.547
area under the viability curve (AUC), normalized (YCC11): −1.337
area under the viability curve (AUC), normalized (YCC2): −0.08387
area under the viability curve (AUC), normalized (YCC3): 0.6512
area under the viability curve (AUC), normalized (FU97): 0.3344
AUC value [1]: high

CCCCCCCCCCCCCCCC[N+](C)(C)CCN(Cc1ccc(OC)cc1)c1ncccn1 [Thonzonium Bromide]
Average Area Under the Viability Curve (AUC), AUC norm value (AGS): −0.4105
Average Area Under the Viability Curve (AUC), AUC norm value (Hs746T): 0
Average Area Under the Viability Curve (AUC), AUC norm value (KATO3): −0.127
Average Area Under the Viability Curve (AUC), AUC norm value (MKN1): −0.2414
Average Area Under the Viability Curve (AUC), AUC norm value (MKN28): 0.07021
Average Area Under the Viability Curve (AUC), AUC norm value (MKN45): 0.1213
Average Area Under the Viability Curve (AUC), AUC norm value (MKN74): −0.9967
Average Area Under the Viability Curve (AUC), AUC norm value (NCC19): 0.2995
Average Area Under the Viability Curve (AUC), AUC norm value (NCC20): −0.6042
Average Area Under the Viability Curve (AUC), AUC norm value (NCC24): −0.2465
Average Area Under the Viability Curve (AUC), AUC norm value (NCC59): 0.6096
Average Area Under the Viability Curve (AUC), AUC norm value (NCI_N87): 0.415
Average Area Under the Viability Curve (AUC), AUC norm value (OCUM1): 0.2209
Average Area Under the Viability Curve (AUC), AUC norm value (SK4): −1.033
Average Area Under the Viability Curve (AUC), AUC norm value (SNU16): −0.9128
Average Area Under the Viability Curve (AUC), AUC norm value (SNU1750): 0.06729
Average Area Under the Viability Curve (AUC), AUC norm value (SNU1967): 0.01501
Average Area Under the Viability Curve (AUC), AUC norm value (SNU1): 1.478
Average Area Under the Viability Curve (AUC), AUC norm value (SNU216): 0.2737
Average Area Under the Viability Curve (AUC), AUC norm value (SNU484): −0.9082
Average Area Under the Viability Curve (AUC), AUC norm value (SNU601): 2.228
Average Area Under the Viability Curve (AUC), AUC norm value (SNU620): −0.2404
Average Area Under the Viability Curve (AUC), AUC norm value (SNU638): −0.4973
Average Area Under the Viability Curve (AUC), AUC norm value (SNU668): 0.3151
Average Area Under the Viability Curve (AUC), AUC norm value (SNU719): 1.9
Average Area Under the Viability Curve (AUC), AUC norm value (YCC11): −0.8304
Average Area Under the Viability Curve (AUC), AUC norm value (YCC2): −0.4255
Average Area Under the Viability Curve (AUC), AUC norm value (YCC3): 0.6163
Average Area Under the Viability Curve (AUC), AUC norm value (FU97): −0.03008
AUC value [1]: high
